Data as given in patent US12171870B2, “Contact lens packaging solutions” (ALCON INC., priority 2020, dated 2024).

Experiments:
[1] = Dissolution of DMPC in HCl aqueous solution and nanoparticle formation by stirring; type: physicochemical
Text: The present invention is partly based on the discovery that phosphatidylcholine nanoparticles can be formed in an aqueous solution free of an organic solvent by high energy treating the mixture of water insoluble phosphatidylcholine and an aqueous solution having a pH from 1 to 4. The present invention is also partly based on the discovery that at pH lower than pKa, the negative charge of phosphate group in phosphatidylcholine is neutralized through the protonation, which break static stacking in phosphatidylcholine crystal and improve solubility of phosphatidylcholine in an aqueous solution (scheme 1). For example, according to the experimental results of the present application, DMPC is dissolved (pKa 1.86) into 137 mM of HCl aqueous solution up to 10 mg/mL and induced aggregate and formed nanoparticles (˜30 nm) by stirring at room temperature for about 10 hours. After neutralized by NaOH, the nanoparticles were diluted to certain concentration in packing saline.
Method: DMPC was added into 135 mM of HCl and stirred overnight at room temperature to form nanoparticles (4-440 mg/mL). Then, pH was adjusted to 6-8 by 50% NaOH. The solution was diluted by PBS or Saline 14 to get certain concentration (0.1-2 mg/mL).

[2] = DMPC phosphate group; cited from earlier work

## CCCCCCCCCCCCCC(=O)OC[C@H](COP(=O)([O-])OCC[N+](C)(C)C)OC(=O)CCCCCCCCCCCCC [DMPC, Dimyristoylphosphatidylcholine]
[1]; 137 mM HCl aqueous solution, read-out: DMPC dissolved into HCl aqueous solution (solubility)
  solubility: ≤ 10000 µg/mL
[1]; formed by stirring at room temperature for about 10 hours in 137 mM HCl
  Nanoparticle size: ~30 nm
[2]
  pKa: 1.86
